# Test results from patent publication US12350247B2, “Use of APE1/Ref-1 inhibitors for treatment of retinal diseases” (Indiana University Research and Technology Corporation, priority 2017, dated 2025).
# Like-named read-outs stand apart in the source and are kept apart here.
# Assays:
# Pa03C [1] = assay: Monolayer cytotoxicity under hypoxia (alamarBlue); assay type: cell-based; settings: N = 3, read-out: LC50 (the source's name)
# Source text: (§1) To determine target selectivity, analogs of APX3330, APX2009 and APX2014, and an analog of SLC-0111, FC12-531A, were used.
# Panc10.05 [2] = assay: Monolayer cytotoxicity under hypoxia (alamarBlue); assay type: cell-based
# Source text: as §1
# 10.05 cells = assay: Intracellular pH assay (pHrodo Red AM) in hypoxic 10.05 cells; assay type: cell-based, human; settings: 0.2% O2 48 hrs; up to 50 μM APX3330, 100 μM SLC-0111; 8 APX2009, 5 μM APX2014
# Source text: Therefore, the APX3330 analogs, APX2009 and APX2014, were used to determine whether APE1/Ref-1 redox inhibition alone can shift intracellular pH in hypoxic PDAC cells given a sufficiently potent inhibitor.
# Panc10.05 [3] = assay: 3D tumor spheroid culture growth (fluorescence intensity); settings: read-out: LC50; 3D Cultures, Tumor Alone, Panc10.05, D12 curves
# Pa03C [4] = assay: as above; settings: read-out: LC50; 3D Cultures, Tumor Alone, Pa03C, D12 curves
# CAFs (CAF19 cells) = assay: 3D spheroid co-culture, CAF signal (green channel); settings: read-out: LC50, 3D Cultures, CAFs
# [5] = test system: patient-derived PDAC cell lines (10.05, Pa02C, Pa03C); assay: SLC-0111 efficacy in PDAC cell lines under hypoxic conditions; assay type: cell-based; settings: Homo sapiens, all three patient-derived PDAC cell lines, 0.2% O2, read-out: LC50 during hypoxia exposure
# Experimental: The efficacy of SLC-0111, a CA9 inhibitor that has recently completed a Phase I clinical trial, was evaluated in different PDAC cell lines under hypoxic conditions for comparison.
# [6] = test system: Pa03C and Panc10.05 tumor cells; assay: 3D spheroid / co-culture model of pancreatic cancer (both patient lines); settings: for single agent efficacy on 3D spheroid growth: treated on days 4 and 8, FIG. 17
# Experimental: Pa03C cells were plated into 3D cultures alone or with CAF19 cells.
# Pa03C and Panc10.05 tumor cells were grown in 3D cultures in the presence of CAFs. Spheroids were treated with either single agents, vehicle (DMSO) or combination of targeted agents on days 4 and 8 (black arrows), and the intensity of tumor (red) and CAF (green) were quantified as described in Example 7 every 3-4 days in culture.
# CA9 [7] = assay: CA9 protein expression in 10.05 3D tumor spheroids (Western blot); assay type: cell-based, human; settings: 3D spheroid cultures, 12 days, treated on days 4 and 8
# Experimental: (§2) Western Blot Analysis: Immunoblotting was performed using antibodies for APE1/Ref-1 (Novus Biologicals; Littleton, CO), CA9 (Santa Cruz; Dallas, Texas), Actin (NeoMarkers; Fremont, CA), and Vinculin (Sigma; St. Louis, MO).
# The effect of APE1/Ref-1 redox inhibition on CA9 protein expression was also measured in 3D tumor spheroids.
# CA9 [8] = assay: Hypoxia-induced CA9 mRNA and protein levels in 10.05 monolayer cells; assay type: cell-based, human; settings: 10.05 cells, 0.2% O2 for 24 hours
# Experimental: as §2
# The comparative Ct method was used to quantitate mRNA levels using RPLP0 and B2M as reference genes. The primers for CA9, RPLP0, and B2M are commercially available (Applied Biosystems). Experiments were performed in triplicate for each sample.
# PDAC cells and CAFs = assay: 3D co-culture cytotoxicity, Ref-1 inhibition with docetaxel or trametinib; assay type: cell-based
# Source text: Standard 3D co-culture assays as prepared in Arpin, C. et al., Mol Cancer Ther 15, 794-805 (2016); Logsdon, P. et al., Mol Cancer Ther 15, 2722-2732 (2016); Cardoso, A. et al., PloS one 7, e4742 (2012); and Kelley, M. et al., The Journal of pharmacology and experimental therapeutics 359, 300-309 (2016) were used to evaluate the cytotoxicity of the combinations on tumor cells as well as cancer-associated fibroblasts.
# [9] = test system: patient-derived Pa03C tumors with CAFs; assay: Flank co-culture model of PDAC, APX3330 and Ruxolitinib; assay type: in vivo, mice; settings: treatment alone, 50 mg/kg, day 28
# Experimental: Treatment of the implanted tumors started on day 11 post implant. Particularly, the co-cultures implanted included 2.5×10^6 tumor cells +/−5 ×10^6 CAFs, providing a 1:2 ratio of tumor cell to CAF. […] The mice were then administered either 50 mg/kg APX3330 BID in 4% Cr:EtOH, 50 mg/kg Rux SID pm in 4% Cr:EtOH, or combinations of the agents. Treatment schedule consisted of treating for 5 days and then giving 2 days off treatment until the tumors reached an average size of 2000 mm^3.
# [10] = test system: human carcinoma colon cell line HCT-116; assay: Alamar blue cytotoxicity combination assay (CalcuSyn); assay type: cell-based; settings: only one APX2014 dosage (12.5 uM), spiked with 75 uM CPI-613
# Experimental: HTC-116 (Yunhua Liu) was seeded in a 96-well tissue culture plate at 2000 cells/well in DMEM+10% FBS and grown overnight at 37° C., 5% CO2. Drug Media DMEM+5% FBS was added at dosages of APX3330 (Apexian) in a 5-point spread from 75 uM to 6.3 uM and spiked with CPI-613 (Apexbio Technology) at 75 uM, or 50 uM, or alone for single agent. Cells were incubated for 72 hours at 37° C., 5% CO2. Media was exchanged with DMEM+5% FBS+10% Alamar blue fluorescent cell viability indicator (INVITROGEN™) and incubated 4 hours at 37° C., 5% CO2 and then read on a fluorescent reader (SYNERGY™ H4 BioTek). […] depicts Chou-Talalay Index (CI) of dose combinations (CalcuSyn). FIG. 32E depicts synergistic drug combinations (CalcuSyn) of APX3330 spiked with 50 uM CPI-613 or 75 uM CPI-613. […] Data shown is the average of 3 separate cytotoxicity assays; each assay normalized to media only control.
# HTC-116 (Yunhua Liu) was seeded in a 96-well tissue culture plate at 2000 cells/well in DMEM+10% FBS and grown overnight at 37° C., 5% CO2. Drug Media DMEM+5% FBS was added at dosages of APX3330 (Apexian) from 100 uM to 0.4 uM in a 10-point spread and spiked with CPI-613 (Apexbio Technology) at 100 uM, or 75 uM, or alone for single agent. Cells were incubated for 72 hours at 37° C., 5% CO2. Media was exchanged with DMEM+5% FBS+10% Alamar blue fluorescent cell viability indicator (INVITROGEN™) and incubated 4 hours at 37° C., 5% CO2 and then read on a fluorescent reader (SYNERGY™ H4 BioTek). […] FIG. 33D depicts Chou-Talalay Index (CI) of dose combinations (CalcuSyn). FIG. 33E depicts synergistic drug combinations (CalcuSyn) of APX3330 spiked with 100 uM CPI-613 or 75 uM CPI-613. […] Data shown is the average of 3 separate cytotoxicity assays; each assay normalized to media only control.
# HTC-116 (Yunhua Liu) was seeded in a 96-well tissue culture plate at 2000 cells/well in DMEM+10% FBS and grown overnight at 37° C., 5% CO2. Drug Media DMEM+5% FBS was added at dosages of APX2014 (Apexian) in a 5-point spread from 25 uM to 1.6 uM and spiked with CPI-613 (Apexbio Technology) at 75 uM, or 50 uM, or alone for single agent. Cells were incubated for 72 hours at 37° C., 5% CO2. Media was exchanged with DMEM+5% FBS+10% Alamar blue fluorescent cell viability indicator (INVITROGEN™) and incubated 4 hours at 37° C., 5% CO2 and then read on a fluorescent reader (SYNERGY™ H4 BioTek). […] FIG. 34D depicts Chou-Talalay Index (CI) of dose combinations (CalcuSyn). FIG. 34E depicts synergistic drug combinations (CalcuSyn) of APX2014 spiked with 50 uM CPI-613 or 75 uM CPI-613. Drug combination synergy could not be ascertained at APX2014 dosages when spiked with 50 uM CPI-613. […] Data shown is the average of 3 separate cytotoxicity assays; each assay normalized to media only control.
# HTC-116 (Yunhua Liu) was seeded in a 96-well tissue culture plate at 2000 cells/well in DMEM+10% FBS and grown overnight at 37° C., 5% CO2. Drug Media DMEM+5% FBS was added at dosages of APX3330 (Apexian) from 100 uM to 0.4 uM in a 10-point spread and spiked with CB-839 (Sigma-Aldrich) at 1000 nM, or 500 nM, or alone for single agent. Cells were incubated for 72 hours at 37° C., 5% CO2. Media was exchanged with DMEM+5% FBS+10% Alamar blue fluorescent cell viability indicator (INVITROGEN™) and incubated 4 hours at 37° C., 5% CO2 and then read on a fluorescent reader (SYNERGY™ H4 BioTek). FIG. 35A depicts APX3330 and CB-839 single agent effects. FIG. 35B depicts APX3330 and CB-839 synergistic combo effects. […] FIG. 35E depicts synergistic drug combinations (CalcuSyn) of APX3330 spiked with 1000 nM CB-839 or 500 nM CB-839 (5-pt only). […] Data shown is the average of 3 separate cytotoxicity assays; each assay normalized to media only control.
# Pa03C [11] = test system: Pa03C
# [12] = test system: mouse colon cell line MC-38; assay: Alamar blue cytotoxicity assay; assay type: cell-based; settings: single agent, 72 hours
# Experimental: MC-38 cells (Yunhua Liu) were seeded in a 96-well tissue culture plate at 2000 cells/well in DMEM+10% FBS and grown overnight at 37° C., 5% CO2. […] Cells were incubated for 72 hours at 37° C., 5% CO2. Media was exchanged with DMEM+5% FBS+10% Alamar blue fluorescent cell viability indicator (Invitrogen™) and incubated 4 hours at 37° C., 5% CO2 and then read on a fluorescent reader (Synergy™ H4 BioTek). […] Data shown is the average of 3 separate cytotoxicity assays; each assay normalized to media only control.
# Panc10.05 [13] = test system: Panc10.05
# [14] = test system: bladder cell line BLCAb001; assay: 96-hour viability assay, APX2014 with cisplatin; assay type: cell-based; settings: APX2014 doses of 6 mM-3 mM in combination with cisplatin
# Experimental: The BLCAb001 (cisplatin resistant) cell line was treated with increasing concentrations of APX2014 and cisplatin as single agents and in combination and assayed in a 96-hour viability assay. The concentrations of APX2014 range from 6 mM-0.38 mM in combination with the indicated cisplatin doses (FIG. 36A). […] The concentrations of Cisplatin as a single agent range from 2.5 mM-0.04 mM (FIG. 36B).
# [15] = Homo sapiens, Panc1005, Panc10.05, N = 3, read-out: LC50 (the source's name)
# [16] = co-culture with Pa03C, D12 curves
# [17] = co-culture with Panc10.05, D12 curves
SMILES,CC50 (Pa03C [1]; Homo sapiens) [µM],CC50 (Panc10.05 [2]; [15]) [µM],effect on intracellular pH as single agent (10.05 cells),CC50 (Panc10.05 [3]) [µM],CC50 (Pa03C [4]) [µM],CC50 (CAFs (CAF19 cells); [16]) [µM],CC50 (CAFs (CAF19 cells); [17]) [µM],single agent efficacy on 3D spheroid growth [6],fold less of the concentration compared to APX3330 to attenuate CA9 expression (CA9 [7]) [fold],fold less required vs. APX3330 to decrease hypoxia-induced CA9 mRNA and protein levels (CA9 [8]) [fold],cytotoxicity in combination with Ref-1 inhibition (PDAC cells and CAFs),also measured
"NS(=O)(=O)c1ccc(NC(=O)Nc2ccc(F)cc2)cc1 [SLC-0111, reference compound]",90.8,63.9,did not affect,64,51.9,97,98.2,–,–,–,–,CC50 [5]: < 100 µM
"CCC/C(=C\C1=C(OC)C(=O)c2ccccc2C1=O)C(=O)N(CC)CC [APX2009, (2E)-2-[(3-methoxy-1,4-dioxo-1,4-dihydronaphthalen-2-yl)methylidene]-N,N-diethylpentanamide]",6.7,4.9,decreased intracellular pH,9.4,6.9,13.1,14.1,as effective as APX3330,10,10,–,tumor killing in combination with napabucasin ([6]; 3D spheroid model (tumor and CAF)): synergistic tumor killing effect
CC(=O)Nc1cccc(-n2c(=O)n(C3CC3)c(=O)c3c(Nc4ccc(I)cc4F)n(C)c(=O)c(C)c32)c1 [Trametinib],–,–,–,–,–,–,–,–,–,–,more effective than either agent alone,–
"N#CC[C@H](C1CCCC1)n1cc(-c2ncnc3[nH]ccc23)cn1 [Rux, Ruxolitinib, reference compound]",–,–,–,–,–,–,–,–,–,–,–,average tumor size [9]: 1750 mm³
CC(=O)O[C@@]12CO[C@@H]1C[C@H](O)[C@@]1(C)C(=O)[C@H](O)C3=C(C)[C@@H](OC(=O)[C@H](O)[C@@H](NC(=O)OC(C)(C)C)c4ccccc4)C[C@@](O)([C@@H](OC(=O)c4ccccc4)[C@H]21)C3(C)C [Docetaxel],–,–,–,–,–,–,–,–,–,–,more effective than either agent alone,–
"CCC/C(=C\C1=C(OC)C(=O)c2ccccc2C1=O)C(=O)NOC [APX2014, (2E)-2-[(3-methoxy-1,4-dioxo-1,4-dihydronapthalen-2-yl)methylidene]-N-methoxypentanamide]",–,–,decreased intracellular pH,–,–,–,–,as effective as APX3330,10,10,–,"CC50 (Pa03C [1]): 3.5 µM; CC50 (Panc10.05 [2]; Panc10.05, N = 3, read-out: LC50 (the source's name)): 1.3 µM; drug combination synergy (Chou-Talalay, CalcuSyn) [10]: Synergy was observed; CC50 (Pa03C [11]): 1.1 µM; EC10 [12]: 2.0 µM; EC30 [12]: 3.0 µM; CC50 (Panc10.05 [13]): 0.3 µM; combination index [14]: > 1.0"
